The source of these data is US20230050653A1, “ROCK INHIBITOR AND PREPARATION METHOD THEREFOR AND USE THEREOF” (WUHAN LL SCIENCE AND TECHNOLOGY DEVELOPMENT CO., LTD., priority 2019, published 2023).

Series [1] is described as follows: In vitro cytotoxicity assay in HepG2 cells, CCK-8 method. The following applies: human.
Protocol: In vitro cytotoxicity assay for the compounds disclosed herein was performed in HepG2 cells using the CCK-8 method. HepG2 cells (Beina Bio) in the logarithmic growth phase were collected, the concentration of cell suspension was adjusted, and then the cells were plated on a 96-well cell culture plate at 50,000 cells/well. The cells were then incubated overnight in a cell incubator (5%, 37° C.), and after 80-90% cell confluence was achieved, test compound at each concentration gradient or vehicle (DMSO) was added after medium change. The resulting mixture was incubated in the cell incubator (5%, 37° C.) for 48 h. After the treatment, the medium in the plate was discarded. The plate was washed twice with PBS, added with CCK-8 working solution (Beyotime) at 100 μL per well, and then incubated at 37° C. for 1.5 h in the dark. Absorbance at OD450 nm was measured for each well on a microplate reader, and CC50 value of each compound was analyzed and calculated.
For the next series, the target named is T1, ROCK1 kinase (Homo sapiens, UniProt Q13464).
T1 construct: purchased Invitrogen
As to the kind of experiment: In vitro evaluation of ROCK1 kinase selectivity (HTRF KinEASE-STK time-resolved fluorometric assay). The class given is biochemical. In outline:
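Recombinant ROCK1 (0.4 ng/μL final) preincubated with compound (1% DMSO) for 0.5 h at room temperature in buffer with 5 mM MgCl2 and 1 mM DTT. Reaction started with ATP and biotinylated STK-substrate 2 (3.53 μM and 1 μM final), run 2 h at room temperature. HTRF detection with STK antibody-Cryptate/streptavidin-XL665 after about 1 h.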

The target in a further series is T2, ROCK2 kinase (Homo sapiens, UniProt O75116).
T2 construct: purchased Invitrogen PV3759
T2 sequence (O75116 whole entry): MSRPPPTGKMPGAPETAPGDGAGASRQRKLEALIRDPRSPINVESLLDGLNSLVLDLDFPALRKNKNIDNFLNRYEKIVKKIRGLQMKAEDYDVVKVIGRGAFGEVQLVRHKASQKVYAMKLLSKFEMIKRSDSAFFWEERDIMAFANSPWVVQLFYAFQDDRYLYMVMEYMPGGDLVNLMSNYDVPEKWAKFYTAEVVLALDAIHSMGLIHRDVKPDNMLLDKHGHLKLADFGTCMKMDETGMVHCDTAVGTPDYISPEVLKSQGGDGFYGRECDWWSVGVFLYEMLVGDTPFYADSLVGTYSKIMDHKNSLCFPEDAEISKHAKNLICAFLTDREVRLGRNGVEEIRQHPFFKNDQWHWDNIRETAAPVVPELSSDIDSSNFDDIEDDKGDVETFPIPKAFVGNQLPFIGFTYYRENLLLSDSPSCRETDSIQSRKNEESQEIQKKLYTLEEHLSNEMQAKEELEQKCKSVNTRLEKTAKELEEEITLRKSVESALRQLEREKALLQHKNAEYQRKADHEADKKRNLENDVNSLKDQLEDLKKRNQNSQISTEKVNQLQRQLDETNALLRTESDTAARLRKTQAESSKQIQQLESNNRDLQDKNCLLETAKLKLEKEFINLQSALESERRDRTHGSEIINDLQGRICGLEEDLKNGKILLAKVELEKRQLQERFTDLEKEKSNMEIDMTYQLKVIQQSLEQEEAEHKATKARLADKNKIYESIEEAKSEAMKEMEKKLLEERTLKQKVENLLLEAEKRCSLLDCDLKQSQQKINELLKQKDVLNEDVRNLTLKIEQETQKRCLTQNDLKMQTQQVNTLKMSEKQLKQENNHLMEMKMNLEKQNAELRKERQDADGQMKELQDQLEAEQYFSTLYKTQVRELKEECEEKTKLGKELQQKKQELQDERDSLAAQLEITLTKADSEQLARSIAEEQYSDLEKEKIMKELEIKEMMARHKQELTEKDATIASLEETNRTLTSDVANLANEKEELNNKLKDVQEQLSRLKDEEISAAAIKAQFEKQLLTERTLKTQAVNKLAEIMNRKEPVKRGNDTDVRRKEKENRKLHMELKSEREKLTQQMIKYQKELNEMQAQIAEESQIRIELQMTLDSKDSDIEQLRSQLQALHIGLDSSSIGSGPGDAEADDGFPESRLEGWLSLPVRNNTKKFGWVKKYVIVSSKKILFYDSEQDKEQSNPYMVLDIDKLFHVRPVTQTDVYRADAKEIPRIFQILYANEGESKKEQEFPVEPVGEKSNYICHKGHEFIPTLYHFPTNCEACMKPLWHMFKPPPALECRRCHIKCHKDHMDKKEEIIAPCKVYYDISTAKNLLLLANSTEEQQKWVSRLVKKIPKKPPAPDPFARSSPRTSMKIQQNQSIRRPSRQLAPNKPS
In words: In vitro evaluation of ROCK2 kinase activity (HTRF KinEASE-STK time-resolved fluorometric assay). It is filed as biochemical. In outline: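 ROCK2 (0.4 ng/μL final) was preincubated with compound (1% DMSO) for 0.5 h at room temperature in kinase buffer with 5 mM MgCl2, 1 mM DTT. Reaction with ATP 6.739 μM and STK-substrate 2-biotin 1 μM ran 2 h at room temperature; HTRF read-out after ~1 h detection.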
In general terms: Time-resolved FRET reads energy transfer from a long-lived donor to a nearby acceptor.

A short description of series [2]: In vivo pharmacokinetic study in mice. Conditions: mouse, plasma. An excerpt:
In Vivo Pharmacokinetic Study of Compounds Disclosed Herein in Mice SPF-grade mice (SPF (Beijing) Biotechnology Co., Ltd.) were fasted overnight (without water deprivation) after adaptive feeding, and then received the compound of the present disclosure by intragastrical administration and bolus injection at tail vein. After administration, plasma of mice was collected at specific time points, and the concentration of the compound in the plasma was detected by LC-MS/MS (AB SCIEX Qtrap4500). The PK parameters of the compounds were statistically analyzed and calculated (WinNonlin V5.2, Pharsight) to show the pharmacokinetic properties of the compounds in mice.

In general, CC50 refers to the concentration giving 50% cytotoxicity. Low values mean greater toxicity to the cells, high ones lower toxicity to the cells. The term IC50 denotes the point on the concentration scale where inhibition reaches its midpoint. Low values mean greater potency in that assay, high ones weaker potency in that assay. Usually bioavailability stands for dose-corrected exposure relative to a reference, in per cent. As usually defined, the AUC(0-t) is the area under the concentration-time curve up to a stated or last time point. A higher AUC(0-t) goes with high exposure. What is called Cmax is the peak of the concentration-time curve.

T1 sequence (Q13464 whole entry): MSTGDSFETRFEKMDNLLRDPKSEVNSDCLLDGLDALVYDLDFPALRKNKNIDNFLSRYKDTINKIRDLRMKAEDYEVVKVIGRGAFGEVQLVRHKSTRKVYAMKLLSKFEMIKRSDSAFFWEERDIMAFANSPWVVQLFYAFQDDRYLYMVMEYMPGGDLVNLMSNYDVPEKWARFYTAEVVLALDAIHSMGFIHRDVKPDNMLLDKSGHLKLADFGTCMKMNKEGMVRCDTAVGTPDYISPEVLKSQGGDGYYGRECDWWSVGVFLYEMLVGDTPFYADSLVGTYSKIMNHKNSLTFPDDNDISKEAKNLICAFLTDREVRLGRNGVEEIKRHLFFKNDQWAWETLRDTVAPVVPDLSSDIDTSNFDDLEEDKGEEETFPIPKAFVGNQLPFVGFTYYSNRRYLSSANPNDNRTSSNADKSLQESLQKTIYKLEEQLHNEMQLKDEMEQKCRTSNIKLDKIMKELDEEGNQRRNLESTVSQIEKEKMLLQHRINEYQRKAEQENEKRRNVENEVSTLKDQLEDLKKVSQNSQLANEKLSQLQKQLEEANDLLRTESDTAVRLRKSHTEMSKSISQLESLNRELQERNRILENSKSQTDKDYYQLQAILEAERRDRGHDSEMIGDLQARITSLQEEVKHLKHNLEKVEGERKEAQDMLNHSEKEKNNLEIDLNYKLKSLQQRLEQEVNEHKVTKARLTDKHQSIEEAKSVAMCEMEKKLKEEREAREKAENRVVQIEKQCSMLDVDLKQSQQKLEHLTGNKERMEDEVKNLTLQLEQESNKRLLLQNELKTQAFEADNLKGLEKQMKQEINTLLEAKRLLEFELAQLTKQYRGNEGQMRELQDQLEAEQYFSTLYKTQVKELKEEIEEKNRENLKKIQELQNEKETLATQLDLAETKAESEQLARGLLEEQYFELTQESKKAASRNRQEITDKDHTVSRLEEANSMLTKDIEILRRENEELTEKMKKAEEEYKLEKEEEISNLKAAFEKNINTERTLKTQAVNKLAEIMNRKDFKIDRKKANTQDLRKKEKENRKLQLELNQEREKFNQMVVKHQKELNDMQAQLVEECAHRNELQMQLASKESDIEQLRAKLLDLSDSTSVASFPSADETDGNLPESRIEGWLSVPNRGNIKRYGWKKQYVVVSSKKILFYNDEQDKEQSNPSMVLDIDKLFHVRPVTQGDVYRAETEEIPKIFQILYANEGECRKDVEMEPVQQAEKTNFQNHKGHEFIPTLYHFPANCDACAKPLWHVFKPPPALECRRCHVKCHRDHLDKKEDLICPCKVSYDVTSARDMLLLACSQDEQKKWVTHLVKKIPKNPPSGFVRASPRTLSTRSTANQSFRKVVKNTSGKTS

In the series on HepG2 cells, `COc1cc(F)cc(C(=O)NC(=O)c2cn(C)c3cc(-c4cn[nH]c4)ccc23)c1` [Compound T203, 1-methyl-6-(1H-pyrazol-4-yl)-1H-indole-3-carboxylic acid-3-fluoro-5-methoxy-benzoylamide] showed a half-maximal cytotoxic concentration (CC50) of over 50 µM.
Consider `COc1cc(F)cc(CNC(=O)N2CCCc3cc(-c4cn[nH]c4)ccc32)c1` [Compound T204, N-(3-fluoro-5-methoxybenzyl)-6-(1H-pyrazol-4-yl)-3,4-dihydroquinoline-1(2H)-carboxamide], for which the CC50 at 48 h in series [1] is over 50 µM. In addition, the half-maximal inhibitory concentration (IC50) against ROCK1 kinase was 0.05 to 0.5 µM; on ROCK2 kinase, at most 0.05 µM.
The molecule `COc1cccc(CNC(=O)c2ncn3cc(-c4cn[nH]c4)ccc23)c1` [Compound T361, N-(3-methoxybenzyl)-6-(1H-pyrazol-4-yl)imidazo[1,5-a]pyridine-1-carboxamide] had a half-maximal cytotoxic concentration (CC50) at 48 h in series [1] of over 100 µM. The IC50 on ROCK1 kinase is 0.05 to 0.5 µM; against ROCK2 kinase, at most 0.05 µM.
In the case of `COc1cccc([C@@H](CO)NC(=O)N2CCc3cc(-c4cn[nH]c4)c(F)cc32)c1` [Compound T346], half-maximal cytotoxicity in series [1] (CC50 at 48 h) was put at 45 µM. The IC50 on ROCK1 kinase and against ROCK2 kinase was at most 0.05 µM throughout.
Consider `COc1cc(F)cc(CNC(=O)c2ncn3cc(-c4cn[nH]c4)ccc23)c1` [Compound T238, N-(3-fluoro-5-methoxybenzyl)-6-(1H-pyrazol-4-yl)imidazo[1,5-a]pyridine-1-carboxamide], for which the bioavailability in series [2] (3.4 mg/kg Po vs Iv) was 84.6%. Further, the AUC(0-t) in series [2] (Iv, 3.4 mg/kg) is 10.5 µg·h/mL; in series [2] (Po, 3.4 mg/kg), 8.88 µg·h/mL. Moreover, the Cmax worked out at 4.94 µg/mL in series [2] (Iv, 3.4 mg/kg) and 2.13 µg/mL in series [2] (Po, 3.4 mg/kg). Besides, the IC50 against ROCK1 kinase and on ROCK2 kinase was at most 0.05 µM throughout.
`O=C(NC1CCCC1)c1cccc([C@H](CO)NC(=O)N2CCc3cc(-c4cn[nH]c4)c(F)cc32)c1` [Compound T356-R, (R)-N-(1-(3-(cyclopentylcarbamoyl)phenyl)-2-hydroxyethyl)-6-fluoro-5-(1H-pyrazol-4-yl)indoline-1-carboxamide] yielded a cytotoxic concentration (CC50) at 48 h in series [1] of over 200 µM. For the same molecule, the IC50 at ROCK1 kinase and against ROCK2 kinase was 0.05 to 0.5 µM throughout.
Molecule `O=C(NCc1cc(F)cc(F)c1)N1CCc2cc(-c3cn[nH]c3F)c(F)cc21` [Compound T387, N-(3,5-difluorobenzyl)-6-fluoro-5-(5-fluoro-1H-pyrazol-4-yl)indoline-1-carboxamide] registered a CC50 at 48 h in series [1] of over 100 µM. The bioavailability in series [2] (1 mg/kg Po vs Iv) was found to be 82.8%. Also, the area under the curve AUC(0-t) in series [2] (Iv, 1 mg/kg) was determined as 0.753 µg·h/mL; in series [2] (Po, 1 mg/kg), 0.623 µg·h/mL. The Cmax in series [2] (Iv, 1 mg/kg) is 0.492 µg/mL; in series [2] (Po, 1 mg/kg) it was 0.188 µg/mL. Further, the half-maximal inhibitory concentration (IC50) against ROCK1 kinase and against ROCK2 kinase was at most 0.05 µM throughout.
In series [1], `COc1cc(CNC(=O)N2CCc3cc(-c4cn[nH]c4F)c(F)cc32)ccc1F` [Compound T384, 6-fluoro-5-(5-fluoro-1H-pyrazol-4-yl)-N-(4-fluoro-3-methoxybenzyl)indoline-1-carboxamide] showed a CC50 at 48 h of over 100 µM. In addition, the IC50 at ROCK1 kinase and against ROCK2 kinase was at most 0.05 µM each time.
Regarding `COc1cccc(CNC(=O)N2CCc3cc(-c4c[nH]nc4N)c(F)cc32)c1` [Compound T345, 5-(3-amino-1H-pyrazol-4-yl)-6-fluoro-N-(3-methoxybenzyl)indoline-1-carboxamide], the CC50 at 48 h in series [1] was determined as 40.8 µM. Moreover, the bioavailability in series [2] (1 mg/kg Po vs Iv) is 49.1%. Also, the AUC(0-t) was 1.26 µg·h/mL in series [2] (Iv, 1 mg/kg) and 0.618 µg·h/mL in series [2] (Po, 1 mg/kg). Besides, the Cmax in series [2] (Iv, 1 mg/kg) amounted to 0.977 µg/mL; in series [2] (Po, 1 mg/kg) it was 0.322 µg/mL. Also, the IC50 is 0.05 to 0.5 µM against ROCK1 kinase and at most 0.05 µM against ROCK2 kinase.
Take `COc1cccc(CNC(=O)N2CCc3cc(-c4c[nH]nc4F)c(F)cc32)c1` [Compound T357, 6-fluoro-5-(3-fluoro-1H-pyrazol-4-yl)-N-(3-methoxybenzyl)indoline-1-carboxamide]: the CC50 at 48 h in series [1] came out at 96 µM. This molecule also had a bioavailability in series [2] (1 mg/kg Po vs Iv) of 71.1%. The AUC(0-t) was 1.09 µg·h/mL in series [2] (Iv, 1 mg/kg) and 0.775 µg·h/mL in series [2] (Po, 1 mg/kg). In addition, the highest concentration (Cmax) in series [2] (Iv, 1 mg/kg) was 0.811 µg/mL; in series [2] (Po, 1 mg/kg), 0.352 µg/mL. Also, the IC50 against ROCK1 kinase and against ROCK2 kinase was at most 0.05 µM each time.
`COc1cccc(CNC(=O)c2ncn3cc(-c4cn[nH]c4F)ccc23)c1` [Compound T391, 6-(5-fluoro-1H-pyrazol-4-yl)-N-(3-methoxybenzyl)imidazo (1,5-a)pyridine-1-carboxamide] showed a CC50 at 48 h in series [1] of over 100 µM. Moreover, the 50% inhibitory concentration (IC50) at ROCK1 kinase and at ROCK2 kinase was at most 0.05 µM throughout.
`O=C(NCc1cccc(OCC2CC2)c1)N1CCc2cc(-c3c[nH]nc3F)c(F)cc21` [Compound T380, N-(3-(cyclopropylmethoxy)benzyl)-6-fluoro-5-(3-fluoro-1H-pyrazol-4-yl)indoline-1-carboxamide] had a CC50 at 48 h in series [1] of 35.3 µM. Also, the results for the IC50 against ROCK1 kinase and at ROCK2 kinase were 0.05 to 0.5 µM and at most 0.05 µM, respectively.
Molecule `COc1cc(F)cc(CNC(=O)N2CCc3cc(-c4cn[nH]c4)ccc3C2)c1` [Compound T201, N-(3-fluoro-5-methoxybenzyl)-6-(1H-pyrazol-4-yl)-3,4-dihydroisoquinoline-2(1H)-carboxamide] showed a bioavailability in series [2] (3 mg/kg Po vs Iv) of 42.4%. For the same molecule, the AUC(0-t) came out at 0.413 µg·h/mL in series [2] (Iv, 3 mg/kg) and 0.175 µg·h/mL in series [2] (Po, 3 mg/kg). Besides, the Cmax in series [2] (Iv, 3 mg/kg) is 0.704 µg/mL; in series [2] (Po, 3 mg/kg) it was 0.0955 µg/mL. The results for the concentration for half-maximal inhibition (IC50) against ROCK1 kinase and at ROCK2 kinase were 0.5 to 5 µM and 0.05 to 0.5 µM, respectively.
In series [1], `COc1cc(F)cc(CNC(=O)c2ncn3cc(-c4cn[nH]c4F)ccc23)c1` [Compound T355, 6-(5-fluoro-1H-pyrazol-4-yl)-N-(3-fluoro-5-methoxybenzyl)imidazo[1,5-a]pyridine-1-carboxamide] registered a CC50 at 48 h of over 100 µM. The IC50 against ROCK1 kinase and at ROCK2 kinase was at most 0.05 µM each time.
`COc1cc(F)cc(CNC(=O)N2CCOc3cc(-c4cn[nH]c4)ccc32)c1` [Compound T205, N-(3-fluoro-5-methoxybenzyl)-7-(1H-pyrazol-4-yl)-2H-benzo[b][1,4]oxazine-4(3H)-carboxamide] yielded a CC50 at 48 h in series [1] of over 50 µM. Besides, the IC50 on ROCK1 kinase is 0.05 to 0.5 µM; against ROCK2 kinase, at most 0.05 µM.
For `COc1cc(F)cc(CNC(=O)N2CCc3cc(-c4c[nH]nc4N)c(F)cc32)c1` [Compound T385, 5-(3-amino-1H-pyrazol-4-yl)-6-fluoro-N-(3-fluoro-5-methoxybenzyl)indoline-1-carboxamide], in that order: over 100 µM, 0.05 to 0.5 µM and at most 0.05 µM.
`COc1cc(F)cc(CNC(=O)N2CCc3cc(-c4cn[nH]c4)ccc32)c1` [Compound T202, N-(3-fluoro-5-methoxybenzyl)-5-(1H-pyrazol-4-yl)indoline-1-carboxamide]: the CC50 at 48 h in series [1] was over 50 µM. This molecule also showed a bioavailability in series [2] (3 mg/kg Po vs Iv) of 90.3%. Also, the AUC(0-t) is 1.74 µg·h/mL in series [2] (Iv, 3 mg/kg) and 1.57 µg·h/mL in series [2] (Po, 3 mg/kg). Besides, the Cmax in series [2] (Iv, 3 mg/kg) worked out at 2.34 µg/mL; in series [2] (Po, 3 mg/kg), 0.807 µg/mL. The IC50 against ROCK1 kinase and against ROCK2 kinase was at most 0.05 µM throughout.
